Assay results taken from PubChem BioAssay (NCI).
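Five concentrations, 48 hours, 96-well plates. TGI denotes the concentration required for complete inhibition of growth.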

Columns and labels:
Test in all cases: NCI anticancer screen, dose series, 48 h
RPMI-8226 leukemia = test system: RPMI-8226 leukemia
SK-MEL-28 melanoma = test system: SK-MEL-28 melanoma
HCC-2998 colon = test system: HCC-2998 colon
OVCAR-5 ovarian = test system: OVCAR-5 ovarian
SF-539 CNS = test system: SF-539 CNS
HS 578T breast = test system: HS 578T breast
SK-MEL-5 melanoma = test system: SK-MEL-5 melanoma
HOP-92 NSCLC = test system: HOP-92 NSCLC
MOLT-4 leukemia = test system: MOLT-4 leukemia
NCI-H23 lung = test system: NCI-H23 lung
SNB-19 CNS = test system: SNB-19 CNS
MCF7 breast = test system: MCF7 breast
786-0 renal = test system: 786-0 renal
CAKI-1 renal = test system: CAKI-1 renal
OVCAR-3 ovarian = test system: OVCAR-3 ovarian
M14 melanoma = test system: M14 melanoma
MDA-MB-435 = test system: MDA-MB-435
NCI-H226 lung = test system: NCI-H226 lung
RXF 393 renal = test system: RXF 393 renal

SMILES	TGI (RPMI-8226 leukemia) [µM]	TGI (SK-MEL-28 melanoma) [µM]	TGI (HCC-2998 colon) [µM]	TGI (OVCAR-5 ovarian) [µM]	TGI (SF-539 CNS) [µM]	TGI (HS 578T breast) [µM]	TGI (SK-MEL-5 melanoma) [µM]	TGI (HOP-92 NSCLC) [µM]	TGI (MOLT-4 leukemia) [µM]	TGI (NCI-H23 lung) [µM]	TGI (SNB-19 CNS) [µM]	TGI (MCF7 breast) [µM]	TGI (786-0 renal) [µM]	TGI (CAKI-1 renal) [µM]	TGI (OVCAR-3 ovarian) [µM]	TGI (M14 melanoma) [µM]	TGI (MDA-MB-435) [µM]	TGI (NCI-H226 lung) [µM]	TGI (RXF 393 renal) [µM]
C=C1CC(c2ccc(OCCCN3C(=O)c4ccccc4C3=O)c(OC)c2)OC1=O (stereo not given)	6.69	9.34	27.7	31.9	1.69	32.4	23.2	3.51	2.72	18.4	28	0.48	14.6	5.16	8.96	17.3	11.7	23.4	7
CCc1nc(N)nc(N)c1-c1ccc2nn(-c3ccccc3)[n+]([O-])c2c1	35.7	25.1	20.5	44.3	18.2	52.3	19.6	27	32.5	18.2	> 70.4	20.8	18.9	18.2	28.3	18.8	19.5	48.7	25
C=C1C[C@@H]2O[C@H]3[C@H]4[C@@H](C[C@@H](C)[C@@H](OC(C)=O)[C@H]42)[C@@H](C)CO[C@@]3(C)[C@H](OC(C)=O)C[C@H]1O	–	> 100	> 100	> 100	> 100	> 100	> 100	> 100	85.6	> 100	> 100	> 100	> 100	> 100	> 100	> 100	> 100	> 100	> 100
COc1nc(C(=O)NNC(=O)c2nc(OC)c3ccccc3c2-c2ccccc2)c(-c2ccccc2)c2ccccc12	> 100	> 100	> 100	> 100	–	> 100	> 100	–	> 100	> 100	> 100	> 100	> 100	> 100	> 100	> 100	> 100	> 100	> 100
COc1ccc(C(=O)Sc2c(-c3ccccc3)c(=O)n(-c3ccccc3)c(=S)n2-c2ccccc2)cc1	–	> 100	> 100	> 100	35.6	> 100	–	71.2	56.1	> 100	> 100	> 100	> 100	> 100	> 100	> 100	> 100	58.7	98.4
CN(C)Cc1cc(C(=O)/C=C/c2ccc(Cl)cc2)cc(CN(C)C)c1O	42.6	26.4	34.1	54.5	38.7	49.3	27.6	–	49.9	39.4	24.1	39.6	20.2	20	10.8	–	26.5	49.8	30.3
NC(=O)C(N)Cc1ccc(O)cn1 (stereo not given)	> 100	> 100	> 100	> 100	> 100	> 100	> 100	> 100	> 100	> 100	> 100	> 100	> 100	> 100	> 100	–	> 100	> 100	> 100
